Measured values taken from patent US20070149446A1, “Tamandarin analogs and fragments thereof and methods of making and using” (The Trustees of the University of Pennsylvania Center for …, priority 2003, published 2007).
Starred links: 1 amine or outer side, 2 acyl side, 3 side chain; linkers in the order of their positions; H or OH if unused. Positions of bridges follow the written chain, without caps; N, C: chain ends. Non-standard residues stand in square brackets, D forms with d. Residues, ends and D or L forms follow the SMILES beside them. Hexanoyl(3S-OH,4R-NH2,5-Me) = CC(C)[C@@H](N[*:1])[C@@H](O)CC(=O)[*:2]; NMeY = CN[C@@H](Cc1ccc(O)cc1)C(=O)O; dNMeL = CN[C@H](CC(C)C)C(=O)O; Hiv = CC(C)[C@H](O)C(=O)O; Lac = C[C@H](O)C(=O)O

Experiments:
DU145 = experiment: SRB colorimetric cell growth inhibition assay, DU145
Procedure: (§1) This form of assay employs 96 well cell culture microplates of […] diameter (Faircloth, 1988; Mosmann, 1983). Most of the cell lines are obtained from American Type Culture Collection (ATCC) derived from different human cancer types.
(§2) Cells are maintained in RPMI 1640 10% FBS, supplemented with 0.1 g/l penicillin and 0.1 g/l streptomycin sulfate and then incubated at 37° C., 5% CO2 and 98% humidity. For the experiments, cells were harvested from subconfluent cultures using trypsin and resuspended in fresh medium before plating.
(§3) Cells are seeded in 96 well microtiter plates, at 5×10^3 cells per well in aliquots of 195 μl medium, and they are allowed to attach to the plate surface by growing in drug free medium for 18 hours. Afterward, samples are added in aliquots of 5 μl in a ranging from 10 to 10-8 μg/ml, dissolved in DMSO/EtOH/PBS (0.5:0.5:99). After 48 hours exposure, the antitumor effect are measured by the SRB methodology: cells are fixed by adding 50 μl of cold 50% (wt/vol) trichloroacetic acid (TCA) and incubated for 60 minutes at 4° C.
(§4) Plates are washed with deionised water and dried. One hundred μl of SRB solution (0.4% wt/vol in 1% acetic acid) is added to each microtiter well and incubated for 10 minutes at room temperature. Unbound SRB is removed by washing with 1% acetic acid. Plates are air dried and bound stain is solubilized with Tris buffer. Optical densities are read on a automated spectrophotometric plate reader at a single wavelength of 490 nm.
(§5) The values for mean+/−SD of data from triplicate wells are calculated.
(§6) Some parameters for cellular responses can be calculated: GI=growth inhibition, TGI=total growth inhibition (cytostatic effect) and LC=cell killing (cytotoxic effect).

LN-caP = experiment: SRB colorimetric cell growth inhibition assay, LN-caP
Procedure: as §1, §2, §3, §4, §5, §6

IGROV = experiment: SRB colorimetric cell growth inhibition assay, IGROV
Procedure: as §1, §2, §3, §4, §5, §6

IGROV-ET = experiment: SRB colorimetric cell growth inhibition assay, IGROV-ET
Procedure: as §1, §2, §3, §4, §5, §6

SK-BR3 = experiment: SRB colorimetric cell growth inhibition assay, SK-BR3
Procedure: as §1, §2, §3, §4, §5, §6

SK-MEL-28 = experiment: SRB colorimetric cell growth inhibition assay, SK-MEL-28
Procedure: as §1, §2, §3, §4, §5, §6

A549 = experiment: SRB colorimetric cell growth inhibition assay, A549
Procedure: as §1, §2, §3, §4, §5, §6

K562 = experiment: SRB colorimetric cell growth inhibition assay, K562
Procedure: as §1, §2, §3, §4, §5, §6

PANC1 = experiment: SRB colorimetric cell growth inhibition assay, PANC1
Procedure: as §1, §2, §3, §4, §5, §6

HT29 = experiment: SRB colorimetric cell growth inhibition assay, HT29
Procedure: as §1, §2, §3, §4, §5, §6

LOVO = experiment: SRB colorimetric cell growth inhibition assay, LOVO
Procedure: as §1, §2, §3, §4, §5, §6

LOVO-DOX = experiment: SRB colorimetric cell growth inhibition assay, LOVO-DOX
Procedure: as §1, §2, §3, §4, §5, §6

HELA = experiment: SRB colorimetric cell growth inhibition assay, HELA
Procedure: as §1, §2, §3, §4, §5, §6

HELA-APL = experiment: SRB colorimetric cell growth inhibition assay, HELA-APL
Procedure: as §1, §2, §3, §4, §5, §6

[1] = Homo sapiens, 48 h, read-out: LC50

How did the TGI (DU145; DU145 cells, total growth inhibition, SRB, 48 hours exposure) turn out when `COc1ccc(C[C@H]2C(=O)OC[C@H](NC(=O)[C@@H](CC(C)C)N(C)C(=O)[C@@H]3CCCN3C(=O)[C@H](C)O)C(=O)N[C@H](C(C)C)[C@@H](O)CC(=O)O[C@@H](C(C)C)C(=O)N[C@@H](CC(C)C)C(=O)N3CCC[C@H]3C(=O)N2C)cc1` [Compound 62, [N-Ser^6]-Tamandarin B] (H-[Lac]P[dNMeL]S[Hexanoyl(3S-OH,4R-NH2,5-Me)][Hiv]LP[NMeY](Me); ester 4-C) was run?
Its TGI is 2.49E−08 Molar.

And the GI50 (DU145; Homo sapiens, DU-145, 48 h)?
The GI50 was 6.79 nM.

And the CC50 (DU145; Homo sapiens, DU-145, 48 h, read-out: LC50)?
Its CC50 is 82.6 nM.

And the GI50 (LN-caP; Homo sapiens, LNCaP, 48 h)?
Its GI50 is 2.71 nM.

And the CC50 (LN-caP; Homo sapiens, LNCaP, 48 h, read-out: LC50)?
Its CC50 is 58.4 nM.

What about the TGI (LN-caP; LN-caP cells, total growth inhibition, SRB, 48 hours exposure) of the same compound?
The TGI was 7.24E−09 Molar.

And the GI50 (IGROV; Homo sapiens, IGROV, 48 h)?
The GI50 was 1990 nM.

And the CC50 (IGROV; Homo sapiens, IGROV, 48 h, read-out: LC50)?
Its CC50 is 9840 nM.

And the TGI (IGROV; IGROV cells, total growth inhibition, SRB, 48 hours exposure)?
Its TGI is 5.29E−06 Molar.

What about the GI50 (IGROV-ET; Homo sapiens, 48 h) of the same compound?
The GI50 was 456 nM.

And the CC50 (IGROV-ET; [1])?
Its CC50 is 6950 nM.

And the TGI (IGROV-ET; IGROV-ET cells, total growth inhibition, SRB, 48 hours exposure)?
The TGI was 1.90E−06 Molar.

And the GI50 (SK-BR3; Homo sapiens, SK-BR-3, 48 h)?
Its GI50 is 3.74 nM.

What about the CC50 (SK-BR3; Homo sapiens, SK-BR-3, 48 h, read-out: LC50) of the same compound?
Its CC50 is no less than 9730 nM.

What about the TGI (SK-BR3; SK-BR3 cells, total growth inhibition, SRB, 48 hours exposure) of the same compound?
Its TGI is 4.05E−08 Molar.

What about the GI50 (SK-MEL-28; Homo sapiens, SK-MEL-28, 48 h) of the same compound?
Its GI50 is 16.6 nM.

And the CC50 (SK-MEL-28; Homo sapiens, SK-MEL-28, 48 h, read-out: LC50)?
Its CC50 is 675 nM.

And the TGI (SK-MEL-28; SK-MEL-28 cells, total growth inhibition, SRB, 48 hours exposure)?
Its TGI is 8.24E−08 Molar.

What about the TGI (A549; A549 cells, total growth inhibition, SRB, 48 hours exposure) of the same compound?
Its TGI is 3.51E−07 Molar.

And the GI50 (A549; Homo sapiens, A549, 48 h)?
The GI50 was 51.5 nM.

What about the CC50 (A549; Homo sapiens, A549, 48 h, read-out: LC50) of the same compound?
Its CC50 is 2900 nM.

And the GI50 (K562; Homo sapiens, K562, 48 h)?
The GI50 was 78 nM.

What about the CC50 (K562; Homo sapiens, K562, 48 h, read-out: LC50) of the same compound?
The CC50 was 2390 nM.

And the TGI (K562; K562 cells, total growth inhibition, SRB, 48 hours exposure)?
Its TGI is 3.03E−07 Molar.

And the GI50 (PANC1; Homo sapiens, PANC-1, 48 h)?
The GI50 was 34.9 nM.

What about the CC50 (PANC1; Homo sapiens, PANC-1, 48 h, read-out: LC50) of the same compound?
The CC50 was no less than 9730 nM.

What about the TGI (PANC1; PANC1 cells, total growth inhibition, SRB, 48 hours exposure) of the same compound?
The TGI was 8.82E−07 Molar.

And the TGI (HT29; HT29 cells, total growth inhibition, SRB, 48 hours exposure)?
The TGI was 2.03E−07 Molar.

What about the GI50 (HT29; Homo sapiens, HT-29, 48 h) of the same compound?
Its GI50 is 23.7 nM.

And the CC50 (HT29; Homo sapiens, HT-29, 48 h, read-out: LC50)?
The CC50 was no less than 9730 nM.

And the GI50 (LOVO; Homo sapiens, LoVo, 48 h)?
The GI50 was 38.9 nM.

And the CC50 (LOVO; Homo sapiens, LoVo, 48 h, read-out: LC50)?
The CC50 was 3660 nM.

And the TGI (LOVO; LOVO cells, total growth inhibition, SRB, 48 hours exposure)?
The TGI was 2.31E−07 Molar.

And the GI50 (LOVO-DOX; Homo sapiens, 48 h)?
Its GI50 is 2390 nM.

What about the CC50 (LOVO-DOX; [1]) of the same compound?
The CC50 was no less than 9730 nM.

And the TGI (LOVO-DOX; LOVO-DOX cells, total growth inhibition, SRB, 48 hours exposure)?
The TGI was 8.40E−06 Molar.

And the TGI (HELA; HELA cells, total growth inhibition, SRB, 48 hours exposure)?
The TGI was 2.61E−08 Molar.

And the GI50 (HELA; Homo sapiens, HeLa, 48 h)?
Its GI50 is 3.76 nM.

What about the CC50 (HELA; Homo sapiens, HeLa, 48 h, read-out: LC50) of the same compound?
Its CC50 is 368 nM.

What about the TGI (HELA-APL; HELA-APL cells, total growth inhibition, SRB, 48 hours exposure) of the same compound?
Its TGI is 5.41E−06 Molar.

And the GI50 (HELA-APL; Homo sapiens, 48 h)?
Its GI50 is 411 nM.

And the CC50 (HELA-APL; [1])?
The CC50 was no less than 9730 nM.
